In data set [1] the target is Carbonic anhydrase 2 (Homo sapiens, UniProt P00918).
Description: Inhibition of human cloned Carbonic anhydrase II
For data set [2], the species on record is Oryctolagus cuniculus.
Description: Reduction of intraocular pressure in normotensive rabbits after treatment with 50 uL of compound (as HCl salt) at pH 5.5 in eye after 60 min from administration, to that of controls
The species entered for data set [3] is Oryctolagus cuniculus. The source holds these as a separate data set.
Description: Reduction of intraocular pressure in normotensive rabbits after treatment with 50 uL of compound (as HCl salt) at pH 5.5 in eye after 240 min from administration, to that of controls
For data set [4] the following is noted: octanol/water.
Description: Partition coefficient (logD) (chloroform/buffer)
Data set [5] has as its target Carbonic anhydrase 1 (Homo sapiens, UniProt P00915).
Description: Inhibition of human cloned Carbonic anhydrase I
For data set [6], the species on record is Oryctolagus cuniculus. The source holds these as a separate data set.
Description: Reduction of intraocular pressure in normotensive rabbits after treatment with 50 uL of compound (as HCl salt) at pH 5.5 in eye after 30 min from administration, to that of controls
For data set [7], the species on record is Oryctolagus cuniculus. This is another data set of the same source.
Description: In vitro transcorneal accession rate (intact cornea) of compound was determined
The nature of data set [8]: physchem. To be noted: buffer, pH 7.4.
Description: Solubility (hydrochloride salt) in buffer at pH 7.4 and at 25 degree celsius.
For data set [9], the species on record is Oryctolagus cuniculus. The source holds these as a separate data set.
Description: Reduction of intraocular pressure in normotensive rabbits after treatment with 50 uL of compound (as HCl salt) at pH 5.5 in eye after 0 min from administration, to that of controls
The species named for data set [10] is Oryctolagus cuniculus. The source holds these as a separate data set.
Description: Reduction of intraocular pressure in normotensive rabbits after treatment with 50 uL of compound (as HCl salt) at pH 5.5 in eye after 90 min from administration, to that of controls
The target in data set [11] is T1, Carbonic anhydrase 4 (Bos taurus, UniProt Q95323).
T1 sequence (Q95323 whole entry): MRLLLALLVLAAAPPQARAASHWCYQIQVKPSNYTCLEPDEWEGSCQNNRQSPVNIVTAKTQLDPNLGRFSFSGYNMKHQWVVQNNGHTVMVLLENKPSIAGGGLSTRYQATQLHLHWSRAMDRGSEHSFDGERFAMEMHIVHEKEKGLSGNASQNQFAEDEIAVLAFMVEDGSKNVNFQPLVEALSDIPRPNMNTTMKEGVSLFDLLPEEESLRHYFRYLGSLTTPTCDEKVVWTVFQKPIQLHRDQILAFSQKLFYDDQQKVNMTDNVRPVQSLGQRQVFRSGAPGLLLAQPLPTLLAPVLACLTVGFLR
Description: Inhibition of bovine Carbonic anhydrase IV determined by esterase method

The species entered for data set [12] is Oryctolagus cuniculus. This is another data set of the same source.
Description: In vitro transcorneal accession rate (without epithelium) of compound was determined

A word on the pKi: it is the negative decadic logarithm of the Ki, by convention in mol/L. A higher pKi goes with a small Ki. For orientation: logD means lipophilicity at a set pH, counting ionised and neutral species. A higher logD goes with higher lipophilicity. The solubility is the dissolved amount per volume that the medium holds. Higher therefore signals a readily soluble substance.

The structures appear in SMILES notation. pKi: −log10 of the molar value. In brackets after ≈: the same amount, converted by molar mass.

Chain of Carbonic anhydrase 1 (P00915 whole entry): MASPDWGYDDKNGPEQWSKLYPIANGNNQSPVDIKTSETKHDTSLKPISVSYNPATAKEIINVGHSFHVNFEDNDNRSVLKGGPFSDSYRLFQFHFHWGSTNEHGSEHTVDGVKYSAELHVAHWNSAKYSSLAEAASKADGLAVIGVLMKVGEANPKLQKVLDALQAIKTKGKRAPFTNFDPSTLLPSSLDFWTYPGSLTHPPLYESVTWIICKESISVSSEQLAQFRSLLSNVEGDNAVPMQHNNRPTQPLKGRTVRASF

Regarding `NS(=O)(=O)c1nnc(NCc2cc(=O)oc3cc(Cl)ccc23)s1`, the results for the pKi in [1], in [5] and in data set [11] were 8.15, 7.44 and 7.82, respectively. Moreover, the “Delta IOP” value in [2] was determined as 5.8 mmHg; in data set [3] it was 1.5 mmHg; in data set [6], 3.9 mmHg; in data set [9] it was 0 mmHg; in data set [10], 4.9 mmHg. Besides, in data set [4], the pH-dependent lipophilicity (logD) worked out at 0.558. Besides, the figures for the Kin in [7] and in data set [12] were 2800 h⁻¹ and 6500 h⁻¹, respectively. This compound also gave a solubility in data set [8] of 54 mM (≈ 20.1 mg/mL).
Regarding `NS(=O)(=O)c1ccccc1NCc1cc(=O)oc2cc(Cl)ccc12`, the negative-log Ki (pKi) in data set [1] is 6.57; in data set [5], 4.67; in [11] it was 6.52.
For `NS(=O)(=O)c1ccc(CCNCc2cc(=O)oc3cc(Cl)ccc23)cc1`, in that order: 6.92, 6.02 and 6.65.
Consider `NS(=O)(=O)c1cc(S(N)(=O)=O)c(NCc2cc(=O)oc3cc(Cl)ccc23)cc1Cl`, for which the negative logarithm of the Ki (pKi) in data set [1] was 7.92; in [5], 6.40; in [11] it was 7.30.
Consider `CCN(Cc1cc(=O)oc2cc(Cl)ccc12)C1CC(C)S(=O)(=O)c2sc(S(N)(=O)=O)cc21` (stereo not given), for which the pKi is 8.10 in data set [1], 4.74 in data set [5] and 7.60 in [11]. Besides, the “Delta IOP” value in [2] was 3.7 mmHg; in [3], 0 mmHg; in [6] it was 1.9 mmHg; in data set [9], 0 mmHg; in [10], 1.6 mmHg. Besides, the pH-dependent lipophilicity (logD) in data set [4] stood at 1.762. Also, the Kin in [7] stood at 2100 h⁻¹; in data set [12], 5900 h⁻¹. Besides, the concentration in solution in [8] (solubility) was 41 mM (≈ 21.2 mg/mL).
`NS(=O)(=O)c1ccc(NS(=O)(=O)c2ccc(NCc3cc(=O)oc4cc(Cl)ccc34)cc2)cc1`: the negative logarithm of the Ki (pKi) in data set [1] was 8.52; in [5], 7.48; in [11], 7.85.
For `NS(=O)(=O)c1ccc(NCc2cc(=O)oc3cc(Cl)ccc23)cc1`, in that order: 6.90, 4.82 and 6.77.
For `NS(=O)(=O)c1ccc(NCc2cc(=O)oc3cc(Cl)ccc23)c(Br)c1`, in that order: 7.48, 6.22 and 7.11.
For the compound `NS(=O)(=O)c1nnc(NN2C(=O)c3cccnc3C2=O)s1`, the values for the pKi in data set [1], in data set [5] and in [11] were 8.10, 7.41 and 7.74, respectively. The compound further came in with a logD in [4] of 0.315. In addition, the Kin worked out at 2500 h⁻¹ in [7] and 7600 h⁻¹ in data set [12]. For the same compound, in [8], the concentration in solution (solubility) came to 72 mM (≈ 23.5 mg/mL).
On to `NS(=O)(=O)c1ccc(NCc2cc(=O)oc3cc(Cl)ccc23)c(Cl)c1`, for which the negative logarithm of the Ki (pKi) in [1] is 7.35; in data set [5], 6.28; in [11], 7.02.
In the case of `NS(=O)(=O)c1cccc(NCc2cc(=O)oc3cc(Cl)ccc23)c1`, the negative logarithm of the Ki (pKi) is 6.60 in data set [1], 4.70 in [5] and 6.55 in data set [11].
For `NS(=O)(=O)c1ccc(NCc2cc(=O)oc3cc(Cl)ccc23)c(I)c1`, the pKi is 7.44 in [1], 6.21 in [5] and 7.15 in data set [11].
For `NS(=O)(=O)c1nnc(NC(=O)CCNCc2cc(=O)oc3cc(Cl)ccc23)s1`, the negative-log Ki (pKi) in data set [1] was 8.70; in [5], 7.92; in data set [11] it was 7.80. Further, the “Delta IOP” value in [2] is listed as 8.3 mmHg; in data set [3], 3.4 mmHg; in data set [6] it was 5.1 mmHg; in data set [9] it was 0 mmHg; in [10] it was 7.2 mmHg. Further, the logD in [4] worked out at 0.683. Moreover, the Kin in data set [7] came out at 3300 h⁻¹; in data set [12], 8400 h⁻¹. The concentration in solution in data set [8] (solubility) was 62 mM (≈ 27.5 mg/mL).
For the compound `NS(=O)(=O)c1ccc(NCc2cc(=O)oc3cc(Cl)ccc23)c(F)c1`, the values for the pKi in data set [1], in [5] and in [11] were 7.52, 6.27 and 6.96, respectively.
Turning to `NS(=O)(=O)c1ccc(CNCc2cc(=O)oc3cc(Cl)ccc23)cc1`, the pKi in data set [1] was 6.84; in [5], 5.97; in [11], 6.62.
`Cn1nc(S(N)(=O)=O)s/c1=N\Cc1cc(=O)oc2cc(Cl)ccc12`: the negative logarithm of the Ki (pKi) in [1] is 8.22; in [5], 7.54; in data set [11] it was 7.80. Also, the “Delta IOP” value in data set [2] is given as 6 mmHg.
In the case of `Cn1nc(S(N)(=O)=O)s/c1=N\S(=O)(=O)c1ccc(NCc2cc(=O)oc3cc(Cl)ccc23)cc1`, the negative logarithm of the Ki (pKi) in [1] is 9.30; in [5] it was 9.00; in data set [11], 9.22.
For `NS(=O)(=O)c1nnc(NS(=O)(=O)c2ccc(NCc3cc(=O)oc4cc(Cl)ccc34)cc2)s1`, in that order: 8.70, 8.30 and 8.40.
The like results for `NS(=O)(=O)c1cc(S(N)(=O)=O)c(NCc2cc(=O)oc3cc(Cl)ccc23)c(Cl)c1Cl` were, in that order, 7.74, 6.30 and 7.31.
As to `NS(=O)(=O)c1ccc(NNCc2cc(=O)oc3cc(Cl)ccc23)cc1`, the pKi in data set [1] was 6.56; in [5], 4.66; in data set [11], 6.49.
The like results for `NS(=O)(=O)c1cccc(NS(=O)(=O)c2ccc(NCc3cc(=O)oc4cc(Cl)ccc34)cc2)c1` were, in that order, 8.22, 7.44 and 7.52.

Values taken from ChEMBL document CHEMBL1133155, “Carbonic anhydrase inhibitors: topical sulfonamide antiglaucoma agents incorporating secondary amine moieties” (Bioorg Med Chem Lett, 2000).
